These results are taken from patent publication US9340590B2 (priority 2011, dated 2016).

Holding throughout (assay): cell-based
In one test the target is hNav1.7 (Homo sapiens, UniProt Q15858). Format: cell-based. The conditions noted are these: IonWorks Quattro, use-dependent block, hNav1.7; read-out: IWQ Use Nav1.7. In general terms: Patch clamp records ionic current or voltage across a cell membrane.
In another test the target is hNav1.5 (Homo sapiens, UniProt Q14524). The following applies: IonWorks Quattro, use-dependent block, hNav1.5; read-out: IWQ Use Nav1.5.
Chain of hNav1.5 (Q14524 whole entry, looked up): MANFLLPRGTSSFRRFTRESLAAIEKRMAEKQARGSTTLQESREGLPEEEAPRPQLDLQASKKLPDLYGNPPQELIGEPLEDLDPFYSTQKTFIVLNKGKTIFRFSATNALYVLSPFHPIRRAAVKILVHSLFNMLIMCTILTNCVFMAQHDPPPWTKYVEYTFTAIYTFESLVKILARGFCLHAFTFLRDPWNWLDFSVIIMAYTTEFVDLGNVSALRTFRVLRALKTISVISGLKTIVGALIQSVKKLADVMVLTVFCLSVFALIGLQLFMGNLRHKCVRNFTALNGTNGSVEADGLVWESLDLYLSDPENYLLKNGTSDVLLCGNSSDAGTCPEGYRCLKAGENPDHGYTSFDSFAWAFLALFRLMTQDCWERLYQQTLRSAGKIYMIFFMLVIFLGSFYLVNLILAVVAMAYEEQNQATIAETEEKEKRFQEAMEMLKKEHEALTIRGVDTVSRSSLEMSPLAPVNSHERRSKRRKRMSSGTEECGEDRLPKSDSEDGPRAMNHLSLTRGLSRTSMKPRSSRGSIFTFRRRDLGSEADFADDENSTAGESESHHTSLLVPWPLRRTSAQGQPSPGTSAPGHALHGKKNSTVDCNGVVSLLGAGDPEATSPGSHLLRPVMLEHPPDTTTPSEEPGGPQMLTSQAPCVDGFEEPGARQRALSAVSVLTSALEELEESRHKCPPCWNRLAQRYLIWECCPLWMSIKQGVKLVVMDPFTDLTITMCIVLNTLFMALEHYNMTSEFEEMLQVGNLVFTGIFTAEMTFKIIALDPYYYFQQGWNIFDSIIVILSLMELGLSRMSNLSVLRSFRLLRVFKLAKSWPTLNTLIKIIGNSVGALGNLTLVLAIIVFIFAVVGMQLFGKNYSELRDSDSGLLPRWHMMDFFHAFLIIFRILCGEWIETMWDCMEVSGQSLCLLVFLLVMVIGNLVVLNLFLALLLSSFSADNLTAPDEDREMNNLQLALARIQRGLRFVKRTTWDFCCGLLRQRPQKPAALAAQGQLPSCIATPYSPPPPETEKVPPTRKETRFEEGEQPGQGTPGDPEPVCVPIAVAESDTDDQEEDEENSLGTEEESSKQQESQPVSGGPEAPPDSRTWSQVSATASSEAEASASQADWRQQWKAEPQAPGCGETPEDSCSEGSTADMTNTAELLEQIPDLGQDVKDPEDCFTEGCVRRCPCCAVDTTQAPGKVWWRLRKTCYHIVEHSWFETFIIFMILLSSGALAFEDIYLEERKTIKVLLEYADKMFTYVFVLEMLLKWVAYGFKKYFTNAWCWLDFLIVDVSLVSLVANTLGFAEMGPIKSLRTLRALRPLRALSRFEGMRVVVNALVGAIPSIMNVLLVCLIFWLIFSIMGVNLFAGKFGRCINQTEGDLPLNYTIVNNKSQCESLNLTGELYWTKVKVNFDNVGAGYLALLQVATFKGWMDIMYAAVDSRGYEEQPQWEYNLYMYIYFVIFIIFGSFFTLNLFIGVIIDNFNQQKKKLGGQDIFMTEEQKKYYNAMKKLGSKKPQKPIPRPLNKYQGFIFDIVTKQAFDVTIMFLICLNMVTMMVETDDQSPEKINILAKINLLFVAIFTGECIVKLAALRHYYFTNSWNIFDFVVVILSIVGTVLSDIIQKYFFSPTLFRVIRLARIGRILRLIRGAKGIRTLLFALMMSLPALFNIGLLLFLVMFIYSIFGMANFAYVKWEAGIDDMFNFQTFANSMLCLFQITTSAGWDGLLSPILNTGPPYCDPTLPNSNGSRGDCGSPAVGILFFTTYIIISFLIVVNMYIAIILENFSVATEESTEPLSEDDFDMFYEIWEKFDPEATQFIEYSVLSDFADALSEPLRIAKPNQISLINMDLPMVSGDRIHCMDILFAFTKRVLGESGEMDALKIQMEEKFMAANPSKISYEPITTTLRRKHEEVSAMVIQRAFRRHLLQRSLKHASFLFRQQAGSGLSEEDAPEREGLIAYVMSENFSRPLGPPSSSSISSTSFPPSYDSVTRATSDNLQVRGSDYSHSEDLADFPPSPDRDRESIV
For a further test, the target named is hNav1.3 (Homo sapiens, UniProt Q9NY46). The following applies: IonWorks Quattro, use-dependent block, hNav1.3; read-out: IWQ Use Nav1.3.

Where only a bound is given, the exact number is not on record here.

Chain of hNav1.7 (Q15858 whole entry, looked up): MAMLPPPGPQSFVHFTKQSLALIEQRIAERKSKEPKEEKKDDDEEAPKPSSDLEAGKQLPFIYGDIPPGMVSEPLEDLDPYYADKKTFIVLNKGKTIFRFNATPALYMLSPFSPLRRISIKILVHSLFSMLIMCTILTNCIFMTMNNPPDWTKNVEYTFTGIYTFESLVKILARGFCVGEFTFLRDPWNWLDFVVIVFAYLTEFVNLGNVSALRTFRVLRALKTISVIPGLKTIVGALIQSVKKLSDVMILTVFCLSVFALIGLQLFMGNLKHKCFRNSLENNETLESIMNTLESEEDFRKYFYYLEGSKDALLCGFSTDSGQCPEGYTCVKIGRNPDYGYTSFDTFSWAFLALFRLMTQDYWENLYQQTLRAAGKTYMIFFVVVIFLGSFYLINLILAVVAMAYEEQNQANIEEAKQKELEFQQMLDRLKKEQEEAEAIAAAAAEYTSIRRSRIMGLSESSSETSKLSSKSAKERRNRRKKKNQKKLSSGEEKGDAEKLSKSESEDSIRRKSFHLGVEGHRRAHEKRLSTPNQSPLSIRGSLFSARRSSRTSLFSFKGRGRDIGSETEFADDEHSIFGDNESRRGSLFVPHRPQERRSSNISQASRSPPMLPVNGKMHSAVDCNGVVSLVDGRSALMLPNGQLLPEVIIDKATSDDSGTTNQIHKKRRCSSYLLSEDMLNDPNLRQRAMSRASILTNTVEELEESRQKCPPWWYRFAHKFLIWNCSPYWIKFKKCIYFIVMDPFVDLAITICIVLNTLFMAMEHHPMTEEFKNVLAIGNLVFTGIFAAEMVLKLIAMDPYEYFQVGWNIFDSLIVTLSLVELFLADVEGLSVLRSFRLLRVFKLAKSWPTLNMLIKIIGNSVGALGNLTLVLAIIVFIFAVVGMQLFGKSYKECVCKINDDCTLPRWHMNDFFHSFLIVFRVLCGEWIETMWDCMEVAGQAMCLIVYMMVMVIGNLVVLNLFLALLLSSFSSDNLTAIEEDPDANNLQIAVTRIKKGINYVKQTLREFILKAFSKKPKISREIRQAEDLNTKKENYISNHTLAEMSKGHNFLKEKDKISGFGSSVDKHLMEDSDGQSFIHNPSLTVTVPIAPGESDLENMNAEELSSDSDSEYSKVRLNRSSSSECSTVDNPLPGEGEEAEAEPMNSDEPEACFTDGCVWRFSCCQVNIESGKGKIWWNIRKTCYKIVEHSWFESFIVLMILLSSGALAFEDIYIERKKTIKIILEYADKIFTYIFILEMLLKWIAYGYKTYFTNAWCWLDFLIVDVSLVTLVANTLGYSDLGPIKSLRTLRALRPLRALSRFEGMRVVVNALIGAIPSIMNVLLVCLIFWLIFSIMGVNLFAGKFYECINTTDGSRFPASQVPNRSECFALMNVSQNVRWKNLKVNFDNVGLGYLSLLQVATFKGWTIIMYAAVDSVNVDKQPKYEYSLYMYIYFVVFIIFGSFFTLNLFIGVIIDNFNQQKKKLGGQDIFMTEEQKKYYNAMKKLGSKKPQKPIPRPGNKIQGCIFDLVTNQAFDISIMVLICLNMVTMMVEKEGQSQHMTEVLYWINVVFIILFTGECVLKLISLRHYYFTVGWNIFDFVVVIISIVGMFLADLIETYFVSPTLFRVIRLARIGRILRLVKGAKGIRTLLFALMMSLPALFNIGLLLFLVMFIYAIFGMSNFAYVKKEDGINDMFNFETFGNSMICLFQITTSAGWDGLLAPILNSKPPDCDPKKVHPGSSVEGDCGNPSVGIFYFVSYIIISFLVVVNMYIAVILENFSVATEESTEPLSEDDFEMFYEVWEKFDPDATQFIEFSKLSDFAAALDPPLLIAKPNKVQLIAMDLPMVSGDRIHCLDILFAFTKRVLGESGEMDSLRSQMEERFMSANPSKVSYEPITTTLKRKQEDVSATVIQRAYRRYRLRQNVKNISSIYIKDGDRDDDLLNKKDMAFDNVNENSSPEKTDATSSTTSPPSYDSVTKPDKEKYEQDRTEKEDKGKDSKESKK

For `CC[C@H](C)[C@@H]1NC(=O)[C@@H]2CSSC[C@@H]3NC(=O)[C@H](C(C)C)NC(=O)[C@H](CC(C)C)NC(=O)[C@H](CC(N)=O)NC(=O)[C@@H]4CCCN4C(=O)[C@H](CCCNC(=N)N)NC(=O)[C@H](CSSC[C@H](NC(=O)[C@@H](N)CC(=O)O)C(=O)N[C@@H](CC(C)C)C(=O)NCC(=O)N[C@@H](C)C(=O)N[C@@H](Cc4ccccc4)C(=O)N[C@@H](CCCNC(=N)N)C(=O)N[C@@H](CCCCN)C(=O)N2)NC(=O)[C@H](CSSC[C@@H](C(=O)N[C@@H](CCCCN)C(=O)N[C@@H](Cc2ccc(O)cc2)C(=O)N[C@H](C(=O)N[C@@H](Cc2ccccc2)C(=O)O)C(C)C)NC(=O)[C@H](Cc2c[nH]c4ccccc24)NC(=O)[C@H](CCCNC(=N)N)NC(=O)[C@H](Cc2c[nH]cn2)NC(=O)[C@H]([C@@H](C)O)NC(=O)[C@H](CCCNC(=N)N)NC(=O)[C@H](CO)NC3=O)NC(=O)[C@H](CCCCN)NC(=O)[C@H](CC(=O)O)NC(=O)[C@H](CO)NC(=O)[C@H](CC(=O)O)NC(=O)[C@@H]2CCCN2C1=O` [compound 849], the IC50 on hNav1.7 is > 5 µM; at hNav1.5 it was > 5 µM; at hNav1.3, 1100 nM.

On to `CC[C@H](C)[C@@H]1NC(=O)[C@@H]2CSSC[C@@H]3NC(=O)[C@H](C(C)C)NC(=O)[C@H](CC(C)C)NC(=O)[C@H](CC(N)=O)NC(=O)[C@@H]4CCCN4C(=O)[C@H](CCCNC(=N)N)NC(=O)[C@H](CSSC[C@H](NC(=O)[C@@H](N)CC(=O)O)C(=O)N[C@@H](CC(C)C)C(=O)NCC(=O)N[C@@H](C)C(=O)N[C@@H](Cc4ccccc4)C(=O)N[C@@H](CCCNC(=N)N)C(=O)N[C@@H](CCCCN)C(=O)N2)NC(=O)[C@H](CSSC[C@@H](C(=O)N[C@@H](CCCCN)C(=O)N[C@@H](Cc2ccc(O)cc2)C(=O)N[C@H](C(=O)N[C@@H](Cc2ccccc2)C(=O)O)C(C)C)NC(=O)[C@H](Cc2c[nH]c4ccccc24)NC(=O)[C@H](CCCNC(=N)N)NC(=O)[C@H](Cc2c[nH]cn2)NC(=O)[C@H]([C@@H](C)O)NC(=O)[C@H](CCCNC(=N)N)NC(=O)[C@H](CO)NC3=O)NC(=O)[C@H](CCCCN)NC(=O)[C@H](CC(=O)O)NC(=O)[C@H]([C@@H](C)O)NC(=O)[C@H](CC(=O)O)NC(=O)[C@@H]2CCCN2C1=O` [compound 850], for which the IC50 on hNav1.7 is > 5 µM; on hNav1.5 it was > 5 µM; at hNav1.3 it was 1300 nM.

`CC[C@H](C)[C@@H]1NC(=O)[C@@H]2CSSC[C@@H]3NC(=O)[C@H](C(C)C)NC(=O)[C@H](CC(C)C)NC(=O)[C@H](CC(N)=O)NC(=O)[C@@H]4CCCN4C(=O)[C@H](CCCNC(=N)N)NC(=O)[C@H](CSSC[C@H](NC(=O)[C@@H](N)CC(=O)O)C(=O)N[C@@H](CC(C)C)C(=O)NCC(=O)N[C@@H](C)C(=O)N[C@@H](Cc4ccccc4)C(=O)N[C@@H](CCCNC(=N)N)C(=O)N[C@@H](CCCCN)C(=O)N2)NC(=O)[C@H](CSSC[C@@H](C(=O)N[C@@H](CCCCN)C(=O)N[C@@H](Cc2ccc(O)cc2)C(=O)N[C@H](C(=O)N[C@@H](Cc2ccccc2)C(=O)O)C(C)C)NC(=O)[C@H](Cc2c[nH]c4ccccc24)NC(=O)[C@H](CCCNC(=N)N)NC(=O)[C@H](Cc2c[nH]cn2)NC(=O)[C@H]([C@@H](C)O)NC(=O)[C@H](CCCNC(=N)N)NC(=O)[C@H](CO)NC3=O)NC(=O)[C@H](CCCCN)NC(=O)[C@H](CC(=O)O)NC(=O)[C@H](C(C)C)NC(=O)[C@H](CC(=O)O)NC(=O)[C@@H]2CCCN2C1=O` [compound 851]: the IC50 was > 5 µM on hNav1.7, > 5 µM on hNav1.5 and 1700 nM on hNav1.3.
